Experimental data reported in patent publication US20230339977A1, “SUBSTITUTED HETEROARYL COMPOUND, AND COMPOSITION AND APPLICATION THEREOF” (SUNSHINE LAKE PHARMA CO., LTD., priority 2020, published 2023).

test system: JAK2/TYK2; test: Cell level activity test of JAK2/TYK2 (IL-12 mediated IFNγ expression in NK92 cells); assay type: cell-based; settings: IFNγ in supernatant by ELISA, NK92 cells with IL-12, 24 h
From the text: TYK2 belongs to the JAK family, and can accept the ligand acting on the coupled receptor signal to regulate downstream signal activator of transcription (STAT) phosphorylation. Phosphorylation of STAT can regulate the expression of downstream related genes, leading to changes in physiological functions such as cell proliferation and differentiation. IL-12 mediates IFNγ expression in NK92 cells through JAK2/TYK2.
Therefore, by inhibiting TYK2 activity, inhibition of this cascade pathway leads to a decrease in IFNγ expression. However, IL-2 can induce NK92 proliferation and produce IFNγ through receptor-coupled […], so the influence of IL-2 needs to be ruled out. In this experiment, the activity of compounds on JAK2/TYK2 was evaluated by detecting the expression of IFNγ at various compound concentrations.
The test compound was dissolved in DMSO, prepared into a 20 mM stock solution, and stored at -20° C. for future use. The mother solution was diluted 10 times with DMSO to make a 2 mM solution, then diluted with medium to an initial concentration of […], and then diluted 3-fold with medium containing 5% DMSO to obtain a prepared concentration gradient of […], 33333.3 nM, 11111.1 nM, 3703.70 nM, 1234.57 nM, 411.523 nM, 137.174 nM, 45.7247 nM, 15.2416 nM; 10 ul of the above-mentioned concentration of drugs were added into a 96-well plate to obtain the final concentrations of […], 3333.3 nM, 1111.1 nM, 370.4 nM, 123.5 nM, 41.1 nM, 13.7 nM, 4.6 nM, 1.52 nM;
NK92 cells were resuscitated and cultured, 16 h before the experiment, the medium was replaced with interleukin-free medium. The mixture was centrifuged and IL-12 medium was added to resuspend the cells, seeded 95 ul in a 96-well plate at a density of 20,000 cells/well, 10 ul of the above gradual dilution was added and incubated for 24 h, centrifuged to take the supernatant, diluted 3-fold with pure water, and the IFNγ concentration of the supernatant was detected by ELISA, the IC50 value was calculated.

Row | SMILES | IC50
1 | CO[C@@H](C)CCOc1cc(-c2cn(C)c3cnc(NC(C)=O)cc23)nc2c1CCOC21CCOC1 (stereo partly drawn) [Example 38, N-(3-(4′-((S)-3-Methoxybutoxy)-4,5,5′,6′-Tetrahydro-2H-Spiro[Furan-3,8′-Pyrano[3,4-b]Pyridin]-2′-yl)-1-Methyl-1H-Pyrrolo[2,3-c]Pyridin-5-yl)Acetamide] | 27.7 nM

same assay, conditions: NK92, 24 h, IFNγ in supernatant by ELISA, NK92 cells with IL-12, 24 h

Row | IC50 | SMILES
2 | 102 nM | COCC(C)(C)COc1cc(-c2cn(C)c3cnc(NC(C)=O)cc23)nc2c1CCOC21CCOC1 (centres unmarked) [Example 30, N-(3-(4′-(3-Methoxy-2,2-Dimethylpropoxy)-4,5,5′,6′-Tetrahydro-2H-Spiro[Furan-3,8′-Pyrano[3,4-b]Pyridin]-2′-yl)-1-Methyl-1H-Pyrrolo[2,3-c]Pyridin-5-yl)Acetamide]
3 | 30.6 nM | COCCOCCCOc1cc(-c2cn(C)c3cnc(NC(C)=O)cc23)nc2c1CCOC21CCOC1 (centres unmarked) [Example 32, N-(3-(4′-(3-(2-Methoxyethoxy)Propoxy)-4,5,5′,6′-Tetrahydro-2H-Spiro[Furan-3,8′-Pyrano[3,4-b]Pyridin]-2′-yl)-1-Methyl-1H-Pyrrolo[2,3-c]Pyridin-5-yl)Acetamide]
4 | 38.6 nM | CC(=O)Nc1cc2c(-c3cc(OCCCOC(F)F)c4c(n3)C3(CCOC3)OCC4)cn(C)c2cn1 (centres unmarked) [Example 33, N-(3-(4′-(3-(Difluoromethoxy)Propoxy)-4,5,5′,6′-Tetrahydro-2H-Spiro[Furan-3,8′-Pyrano[3,4-b]Pyridin]-2′-yl)-1-Methyl-1H-Pyrrolo[2,3-c]Pyridin-5-yl)Acetamide]
5 | 34.3 nM | CC(=O)Nc1cc2c(-c3cc(OCCCO)c4c(n3)C3(CCOC3)OCC4)cn(C)c2cn1 (centres unmarked) [Example 34, N-(3-(4′-(3-Hydroxypropoxy)-4,5,5′,6′-Tetrahydro-2H-Spiro[Furan-3,8′-Pyrano[3,4-b]Pyridin]-2′-yl)-1-Methyl-1H-Pyrrolo[2,3-c]Pyridin-5-yl)Acetamide]
6 | 20.4 nM | CC(=O)Nc1cc2c(-c3cc(OCC(C)(C)CO)c4c(n3)C3(CCOC3)OCC4)cn(C)c2cn1 (centres unmarked) [Example 35, N-(3-(4′-(3-Hydroxy-2,2-Dimethylpropoxy)-4,5,5′,6′-Tetrahydro-2H-Spiro[Furan-3,8′-Pyrano[3,4-b]Pyridin]-2′-yl)-1-Methyl-1H-Pyrrolo[2,3-c]Pyridin-5-yl)Acetamide]
7 | 52.9 nM | COCCOCc1cc(-c2cn(C)c3cnc(NC(C)=O)cc23)nc2c1CCOC21CCOC1 (centres unmarked) [Example 36, N-(3-(4′-((2-Methoxyethoxy)Methyl)-4,5,5′,6′-Tetrahydro-2H-Spiro[Furan-3,8 ‘-Pyrano[3,4-b]Pyridin]-2′-yl)-1methyl-1H-Pyrrolo[2,3-c]Pyridin-5-yl)Acetamide]
8 | 9.6 nM | CC(=O)Nc1cc2c(-c3cc(CC#N)c4c(n3)C3(CCOC3)OCC4)cn(C)c2cn1 (centres unmarked) [Example 42, N-(3-(4′-(Cyanomethyl)-4,5,5′,6′-Tetrahydro-2H-Spiro[Furan-3,8′-Pyrano[3,4-b]Pyridin]-2′-yl)-1-Methyl-1H-Pyrrolo[2,3-c]Pyridin-5-yl)Acetamide]
9 | 40.2 nM | CC(=O)Nc1cc2c(-c3cc(SCCC(C)(C)O)c4c(n3)C3(CCOC3)OCC4)cn(C)c2cn1 (centres unmarked) [Example 44, N-(3-(4′-((3-Hydroxy-3-Methylbutyl)Thio)-4,5,5′,6′-Tetrahydro-2H-Spiro[Furan-3,8′-Pyrano[3,4-b]Pyridin]-2′-yl)-1-Methyl-1H-Pyrrolo[2,3-c]Pyridin-5-yl)Acetamide]
10 | 111 nM | CC(=O)Nc1cc2c(-c3cc(COCC(C)(C)O)c4c(n3)C3(CCOC3)OCC4)cn(C)c2cn1 (centres unmarked) [Example 45, N-(3-(4′-((2-Hydroxy-2-Methylpropoxy)Methyl)-4,5,5′,6′-Tetrahydro-2H-Spiro[Furan-3,8′-Pyrano[3,4-b]Pyridin]-2′-yl)-1-Methyl-1H-Pyrrolo[2,3-c]Pyridin-5-yl)Acetamide]
11 | 115 nM | CC(=O)Nc1cc2c(-c3cc(NCCC(C)(C)O)c4c(n3)C3(CCOC3)OCC4)cn(C)c2cn1 (centres unmarked) [Example 48, N-(3-(4′-((3-Hydroxy-3-Methylbutyl)Amino)-4,5,5′,6′-Tetrahydro-2H-Spiro[Furan-3,8′-Pyrano[3,4-b]Pyridin]-2′-yl)-1-Methyl-1H-Pyrrolo[2,3-c]Pyridin-5-yl)Acetamide]

Row | SMILES | IC50
12 | COC(C)CCOc1cc(-c2cn(C)c3cnc(NC(C)=O)cc23)nc2c1CCOC21CCOC1 (stereo in doubt) [Example 43, N-(3-(4′-((R)-3-Methoxybutoxy)-4,5,5′,6′-Tetrahydro-2H-Spiro[Furan-3,8′-Pyrano[3,4-b]Pyridin]-2′-yl)-1-Methyl-1H-Pyrrolo[2,3-c]Pyridin-5-yl)Acetamide] | 26.4 nM
13 | CC(=O)Nc1cc2c(-c3cc(OCC[C@@H](C)O)c4c(n3)C3(CCOC3)OCC4)cn(C)c2cn1 (stereo partly drawn) [Example 37, N-(3-(4′-((R)-3-Hydroxybutoxy)-4,5,5′,6′-Tetrahydro-2H-Spiro[Furan-3,8′-Pyrano[3,4-b]Pyridin]-2′-yl)-1-Methyl-1H-Pyrrolo[2,3-c]Pyridin-5-yl)Acetamide] | 20 nM
14 | CC(=O)Nc1cc2c(-c3cc(OCC[C@H](C)O)c4c(n3)C3(CCOC3)OCC4)cn(C)c2cn1 (stereo partly drawn) [Example 39, N-(3-(4′-((S)-3-Hydroxybutoxy)-4,5,5′,6′-Tetrahydro-2H-Spiro[Furan-3,8′-Pyrano[3,4-b]Pyridin]-2′-yl)-1-Methyl-1H-Pyrrolo[2,3-c]Pyridin-5-yl)Acetamide] | 11 nM
15 | CC(=O)Nc1cc2c(-c3cc(OCCC(C)(C)C#N)c4c(n3)C3(CCOC3)OCC4)cn(C)c2cn1 (centres unmarked) [Example 40, N-(3-(4′-(3-Cyano-3-Methylbutoxy)-4,5,5′,6′-Tetrahydro-2H-Spiro[Furan-3,8′-Pyrano[3,4-b]Pyridin]-2′-yl)-1-Methyl-1H-Pyrrolo[2,3-c]Pyridin-5-yl)Acetamide] | 152 nM
16 | CC(=O)Nc1cc2c(-c3cc(OCCC(C)(C)O)c4c(n3)C3(CCOC3)OCC4)cn(C3COC3)c2cn1 (centres unmarked) [Example 49, N-(3-(4′-(3-Hydroxy-3-Methylbutoxy)-4,5,5′,6′-Tetrahydro-2H-Spiro[Furan-3, 8′-Pyrano[3,4-b]Pyridin]-2′-yl)-1-(Oxetan-3-yl)-1H-Pyrrolo[2,3-c]Pyridin-5-yl)Acetamide] | 68.1 nM
17 | CC(=O)Nc1cc2c(-c3cc(OCCC(C)(C)O)c4c(n3)C3(CCOC3)OCC4)cn(C(C)C)c2cn1 (centres unmarked) [Example 50, N-(3-(4′-(3-Hydroxy-3-Methylbutoxy)-4,5,5′,6′-Tetrahydro-2H-Spiro[Furan-3, 8′-Pyrano[3,4-b]Pyridin]-2′-yl)-1-Isopropyl-1H-Pyrrolo[2,3-c]Pyridin-5-yl)Acetamide] | 47 nM
